In PubChem BioAssay (NCI) one finds TGI and GI50 data, which are given here for 24 compounds.

Common to all, as to assay: inhibition of tumour cell growth, NCI panel, 48 h
Experiment [1] has as its system MALME-3M melanoma.
Experiment [2] has as its system NCI-H522 lung.
For experiment [3], the system named is K-562 leukemia.
The test system of experiment [4] is UO-31 renal.
In experiment [5] the test system is HL-60(TB) leukemia.
The test system of experiment [6] is HOP-62 NSCLC.
For experiment [7], the system named is OVCAR-8 ovarian.
Experiment [8] relates to A498 renal.

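These data come from cells grown in 96-well plates and exposed to compound for 48 hours at five concentrations. GI50 = concentration required for 50% inhibition of growth. TGI denotes the concentration required for complete inhibition of growth.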

Regarding `COc1cc(Cc2cc(OC)c(OC)c(OC)c2)ccc1O`, the TGI in experiment [1] is 12 µM; in experiment [2], 39.5 µM; in experiment [3] it was more than 100 µM; in experiment [4], more than 100 µM; in experiment [5], 6.55 µM; in experiment [6], more than 100 µM. The TGI in experiment [7] is more than 100 µM.
Consider `CSc1nc(NC2OC(COC(C)=O)C(OC(C)=O)C(OC(C)=O)C2OC(C)=O)c2c(OC(C)=O)c(C)c(=O)oc2n1` (stereo not drawn), for which the TGI in experiment [1], in experiment [3], in experiment [4], in experiment [5], in experiment [8] and in experiment [6] was more than 100 µM each time. This compound also registered a TGI in experiment [7] of more than 100 µM.
As to `O=C1C2=C(CC3C(C2)C3(Br)Br)C(=O)C2=C1CC1C(C2)C1(Br)Br` (stereo not drawn), the TGI in experiment [1], in experiment [2], in experiment [3], in experiment [4], in experiment [5] and in experiment [8] was more than 100 µM each time. Besides, the TGI in experiment [6] and in experiment [7] was more than 100 µM in each case.
For `Cc1cccc(C(C)(C)C)c1NC(=O)CCc1n[nH]c(=S)o1`, the TGI in experiment [1], in experiment [2], in experiment [3], in experiment [4], in experiment [5] and in experiment [8] was more than 100 µM each time. Further, the TGI in experiment [6] and in experiment [7] was more than 100 µM each time.
Regarding `COC(=O)C(=O)C(C(=O)C(=O)Nc1ccc(C)cc1C)c1nc2ccccc2[nH]c1=O` (stereo not drawn), the TGI in experiment [1] is more than 100 µM; in experiment [2], 93 µM; in experiment [3], more than 100 µM; in experiment [4] it was more than 100 µM; in experiment [5], more than 100 µM; in experiment [8] it was 58.8 µM. In addition, the TGI in experiment [6] and in experiment [7] was more than 100 µM in each case.
As for `COc1ccc(C(=O)O)c(Cc2cccc3ccccc23)c1`, the TGI in experiment [1], in experiment [2], in experiment [3], in experiment [4], in experiment [5] and in experiment [6] was more than 100 µM each time. The same compound displayed a TGI in experiment [7] of more than 100 µM.
`NC1C2(CCCCCC2)NC(=O)C12CCCCCC2` (stereo not drawn): the TGI in experiment [1], in experiment [2], in experiment [3], in experiment [4], in experiment [5] and in experiment [8] was more than 100 µM each time. The TGI in experiment [6] and in experiment [7] was more than 100 µM throughout.
With `CCC(C)(O)c1cn(-c2cccc(S(=O)(=O)O)c2)nn1` (stereo not drawn), the TGI in experiment [1], in experiment [2], in experiment [3], in experiment [4], in experiment [5] and in experiment [8] was more than 100 µM each time. The TGI in experiment [6] and in experiment [7] was more than 100 µM in each case.
In the case of `N#Cc1cnsc1`, the TGI in experiment [1], in experiment [3], in experiment [4], in experiment [5], in experiment [8] and in experiment [6] was more than 100 µM each time. The compound further gave a TGI in experiment [7] of more than 100 µM.
For the compound `Nc1c(-c2ccc(Br)cc2)[n+]([O-])c2ccccc2[n+]1[O-]`, the TGI in experiment [1], in experiment [2], in experiment [3], in experiment [4], in experiment [5] and in experiment [8] was more than 100 µM each time. Further, the TGI in experiment [6] and in experiment [7] was more than 100 µM in each case.
For `NCCCNCCSSCCCCS(=O)O`, the TGI in experiment [1] was 49.2 µM; in experiment [2], 32.3 µM; in experiment [3], more than 100 µM; in experiment [4], more than 100 µM; in experiment [5], 40.7 µM; in experiment [8], more than 100 µM. The TGI in experiment [6] and in experiment [7] was more than 100 µM each time.
`Cc1ccc(NC(=O)C2C(=O)N(c3ccc(C)c(C)c3)C(=O)/C2=N/O)cc1C` (stereo not drawn): the TGI in experiment [1], in experiment [2], in experiment [3], in experiment [4], in experiment [5] and in experiment [8] was more than 100 µM each time. Moreover, the TGI in experiment [6] and in experiment [7] was more than 100 µM in each case.
On to `CC(C)=[CH][Sb]([Br])([CH]=C(C)C)([CH]=C(C)C)[CH]=C(C)C`, for which the GI50 in experiment [1] was 5.28 µM; in experiment [2], 1.5 µM; in experiment [3], 6.7 µM; in experiment [4] it was 35.4 µM; in experiment [5], 1.88 µM; in experiment [8], 41 µM. For the same compound, the GI50 was 40.3 µM in experiment [6] and 23 µM in experiment [7]. In addition, the TGI is more than 100 µM in experiment [1]; 20.2 µM in experiment [2]; more than 100 µM in experiment [3]; more than 100 µM in experiment [4]; 24.3 µM in experiment [5]; more than 100 µM in experiment [8]. The TGI in experiment [6] and in experiment [7] was more than 100 µM throughout.
Consider `O=S(O)CCCCSSCCCCSSCCCCS(=O)O`, for which the TGI in experiment [1] was 84.2 µM; in experiment [2] it was 35.6 µM; in experiment [3] it was more than 100 µM; in experiment [4], more than 100 µM; in experiment [5], 30.6 µM; in experiment [8], more than 100 µM. This compound registered a TGI in experiment [7] of more than 100 µM.
`Cc1c2c(nn1-c1ccc(S(=O)(=O)/N=C3\SCC(=O)N3C(=O)c3ccccc3)cc1)-c1ccccc1CC2`: the GI50 was 96.2 µM in experiment [2]; 79.2 µM in experiment [3]; 67.4 µM in experiment [4]; 65.5 µM in experiment [5]; 33.5 µM in experiment [6]; 68.8 µM in experiment [7]. For the same compound, the TGI in experiment [2], in experiment [3], in experiment [4], in experiment [5], in experiment [6] and in experiment [7] was more than 100 µM each time.
Turning to `CCOC(=O)NC(=O)c1cn(CCCOC(=O)NCCCCCCNC(=O)OCCCn2c(=O)c(C(=O)NC(=O)OCC)cn(C)c2=O)c(=O)n(C)c1=O`, the TGI in experiment [1], in experiment [2], in experiment [3], in experiment [4], in experiment [5] and in experiment [8] was more than 100 µM throughout. Moreover, the TGI in experiment [7] is more than 100 µM.
Consider `Cc1ccc(C(=O)/C=C/c2ccccc2O)c(C)c1`, for which the TGI in experiment [1], in experiment [2], in experiment [3], in experiment [4], in experiment [5] and in experiment [8] was more than 100 µM each time. Besides, the TGI in experiment [6] and in experiment [7] was more than 100 µM throughout.
Take `COC(=O)CSc1n[nH]c(-c2ccc(O)c([N+](=O)[O-])c2)n1`: the TGI in experiment [1], in experiment [3], in experiment [4], in experiment [5], in experiment [8] and in experiment [7] was more than 100 µM in each case.
Regarding `CSc1ccc(/C=C2/C[N+](C)(C)C/C(=C/c3ccc(SC)cc3)C2=O)cc1`, the TGI in experiment [1] was 27.5 µM; in experiment [2], 21.3 µM; in experiment [3], more than 100 µM; in experiment [4], more than 100 µM; in experiment [5], 9.82 µM.
Regarding `CCc1cccc(C)c1NC(C)=O`, the TGI in experiment [1], in experiment [3], in experiment [4], in experiment [5], in experiment [8] and in experiment [6] was more than 100 µM throughout. The compound also showed a TGI in experiment [7] of more than 100 µM.
Consider `CCN(CC)C(=O)C/C(C)=N/NC(=O)c1ccncc1`, for which the TGI in experiment [1], in experiment [2], in experiment [3], in experiment [4], in experiment [5] and in experiment [6] was more than 100 µM in each case. This compound displayed a TGI in experiment [7] of more than 100 µM.
Take `CC(C)=CC(=O)N1CCN(C(=O)C=C(C)C)CC1`: the TGI in experiment [2], in experiment [3], in experiment [4], in experiment [5], in experiment [8] and in experiment [6] was more than 100 µM each time. Also, the TGI in experiment [7] was more than 100 µM.
Regarding `CC(=O)SCCC1c2[nH]c3ccccc3c2CCN1O` (stereo not drawn), the TGI in experiment [1], in experiment [2], in experiment [3], in experiment [4], in experiment [5] and in experiment [6] was more than 100 µM throughout. In experiment [7], the TGI was more than 100 µM.
For the compound `COC(=O)C1=C(c2ccc3c(c2)OCO3)O[C@H](c2ccc3c(c2)OCO3)[C@H]1COC(C)=O`, the TGI in experiment [1] was more than 100 µM; in experiment [3] it was more than 100 µM; in experiment [4], more than 100 µM; in experiment [5], more than 100 µM; in experiment [8], 59.6 µM; in experiment [6] it was more than 100 µM. The same compound had a TGI in experiment [7] of more than 100 µM.
